Experiments:
[1] = tested on: Cavia porcellus; assay: Intraperitoneal dose required for inhibition of [Nle10]-NKA4-10 induced bronchoconstriction in guinea pig; format: functional; conditions: ip
[2] = tested on: Cavia porcellus; assay: Intravenous dose required for inhibition of [Nle10]-NKA4-10 induced bronchoconstriction in guinea pig; format: functional

Work on `CC(=O)NC1(c2ccccc2)CCN(CC[C@H](CN(C)C(=O)c2ccccc2)c2ccc(Cl)c(Cl)c2)CC1` [SAREDUTANT] yielded an ED50 [1] of 0.35 mg/kg and an ED50 [2] of 0.037 mg/kg.

— ChEMBL document CHEMBL1127189, “A facile synthesis of the novel Neurokinin A antagonist SR 48968” (Bioorg Med Chem Lett, 1993)
